The source of these data is publication PMC6361841, “Repurposing of Drugs as Novel Influenza Inhibitors From Clinical Gene Expression Infection Signatures” (Frontiers in Immunology, 2019).

Where a name gives a salt, the structure may show the parent alone. Read-outs that look alike come from different tables or passages of the source.

For test [1], the system named is A/Lyon/969/09 (H1N1)pdm09 virus. The test is described as follows: microbe, parasite or virus in culture. The test is classed as cell-based, influenza A(H1N1)pdm09 virus.
Test [2] deals with A/Texas/126/2016 (H3N2). The test is described as follows: Antiviral efficacy in A549 cells, H3N2 strain. The test is classed as cell-based, influenza virus.
The test system of test [3] is A(H1N1)pdm09 virus. The test is classed as cell-based, influenza virus. The settings on record: for Viral titer, Dilution #2: virus 10^5 TCID50/mL pre-incubated 1 h; for Viral titer, Dilution #2 / Viral titer, Dilution #1: diltiazem 9 µM, etilefrine 18 µM, oseltamivir 1 µM; for Viral titer, Dilution #1: virus 10^6 TCID50/mL pre-incubated 1 h; for Mean relative Viral production: virus pre-incubated 1 h, relative to PBS control.

In test [4] the test system is influenza A/Quebec/144147/09 (H1N1)pdm09 virus. The test is classed as in vivo, C57BL/6N mice. The settings on record: […]; for Survival: mg/kg/day: oseltamivir 10, monensin 10, diltiazem 90, etilefrine 3.
The test system is the same in test [5]. The test is classed as in vivo, C57BL/6N mice. The conditions noted are these: for Clinical benefit in terms of survival vs saline (placebo) group: mg/kg/day: oseltamivir 10, monensin 10, diltiazem 90, etilefrine 3, lanatoside C 100, prednisolone 5, flucytosine 240, felbinac 5, timolol 50; for Weight loss vs saline (placebo) group: oseltamivir 10, diltiazem 90, etilefrine 3 mg/kg/day.

For test [6], the system named is B/Massachusetts/2/2106. As to the kind of experiment: Antiviral efficacy in A549 cells, B strain. The test is classed as cell-based, influenza virus.
Test [7] relates to influenza A/Lyon/969/09 (H1N1)pdm09 virus. It is filed as cell-based.
The test system of test [8] is MucilAir® human airway epithelium. It is filed as cell-based.
For test [9], the system named is A/Lyon/969/09 (H1N1)pdm09 virus. As to the kind of experiment: microbe, parasite or virus in culture. It is filed as cell-based, influenza A(H1N1)pdm09 virus. The settings on record: Influenza A virus, 6 h pre-treatment only, A549, Figure 2B.
Setting [10] is: Influenza A virus, H1N1, 48 h, pre-treatment/treatment in vitro, A549, […], read-out: EC50.
Setting [11] is: pre-treatment/treatment in vitro, A549, […], read-out: EC50.
Setting [12] is: 24 h p.i., oseltamivir 0.1 µM, diltiazem 9 µM or both.
Where [13] appears, read: 48 h p.i., oseltamivir 0.1 µM, diltiazem 9 µM or both.
[14] abbreviates: 96 h p.i., oseltamivir 0.1 µM, diltiazem 9 µM or both.
The mark [15] stands for this setting: oseltamivir 1 μM, diltiazem 90 μM.

Turning to `CCN(CC)CCOC(=O)C(c1ccccc1)c1ccccc1` [Adiphenine], the half-maximal effective concentration (EC50) in [1] (setting [10]) is 6.29 nM.
Still for that read-out and setting: as for `N=C(N)NC(=O)c1nc(Cl)c(N)nc1N` [Amiloride], the figure is 0.41 nM; as for `O=c1cc(-c2ccc(O)cc2)oc2cc(O)cc(O)c12` [Apigenin], 0.21 nM.
In the case of `CC1(C)S[C@@H]2[C@H](NC(=O)Cc3ccccc3)C(=O)N2[C@H]1C(=O)O` [Benzathin Benzylpenicilline, Benzathine benzylpenicillin], in test [1] (setting [11]), the EC50 is 0.26 nM.
Take `OC(CCN1CCCCC1)(c1ccccc1)C1CC2C=CC1C2` (stereo not drawn) [Biperiden]: the EC50 in test [1] (setting [10]) worked out at 0.38 nM.
Still for that read-out and setting: to `O=NN(CCCl)C(=O)NCCCl` [Carmustine] belongs 0.07 nM; to `CN(C)CCN(Cc1ccc(Cl)cc1)c1ccccn1` [Choropyramine, Chloropyramine], 0.07 nM.
Take `CCCCCCC[N+](CC)(CC)CCCCc1ccc(Cl)cc1` [Clofilium tosylate]: the EC50 in test [1] (setting [11]) worked out at 0.16 nM.
On to `CCNCC(O)c1cccc(O)c1` (stereo not drawn) [Etilefrine], for which, in test [2] (dose CMAP), the “Relative Viral production” value is given as 1 % of mock-treated and the Viral titer amounted to 3.63 log TCID50/ml. For the same compound, in [2] (dose CMAP/10), the “Relative Viral production” value is 14.7 % of mock-treated and the Viral titer was 4.8 log TCID50/ml. For the same compound, in [3] (pre-incubation before infection), the “Effect of virus pre-incubation on final viral titers vs PBS-incubated controls” value is recorded as “did not affect final viral titers”. Moreover, in test [3], the “Viral titer, Dilution #2” value amounted to 4.63 log TCID50/ml; the “Viral titer, Dilution #1” value is recorded as 5.30 log TCID50/ml; the “Mean relative Viral production” value is on record as 100.0 % of mock-treated. The compound further showed a Survival in test [4] of 50%. In test [5], the “Clinical benefit in terms of survival vs saline (placebo) group” value (shortened to “Clinical benefit … vs saline (placebo) group”) is listed as “significantly improved survival” and the “Weight loss vs saline (placebo) group” value is “significantly improved”. The “Reduction in lung viral titers (LVTs) on day 5 p.i.” value in [5] (mouse, in vivo) is “at least 1 log”. Also, in test [1] (setting [10]), the EC50 was 0.34 nM. Moreover, in test [6] (dose CMAP), the “Relative Viral production” value is on record as 7.3 % of mock-treated and the Viral titer stood at 3.97 log TCID50/ml. In [6] (dose CMAP/10), the “Relative Viral production” value is on record as 15.0 % of mock-treated and the Viral titer turned out to be 4.3 log TCID50/ml.
Turning to `O=C(O)Cc1ccc(-c2ccccc2)cc1` [Felbinac], the “Clinical benefit … vs saline (placebo) group” value in test [5] is recorded as “no clinical benefit”. Further, the EC50 in test [1] (setting [10]) was found to be 34.4 nM.
On the same counts, the results for `Nc1[nH]c(=O)ncc1F` [Flucytosine] are “no clinical benefit” and 2.02 nM.
Regarding `Nc1nc(=O)c2nc(CNc3ccc(C(=O)N[C@@H](CCC(=O)O)C(=O)O)cc3)cnc2[nH]1` [Folic acid], the EC50 in [1] (setting [10]) came to 0.22 nM.
Regarding `CC(=O)O[C@H]1C[C@@]2(C)[C@@H](C[C@@H](O)[C@H]3[C@@]4(C)CC[C@@H](O)[C@@H](C)[C@@H]4CC[C@@]32C)/C1=C(\CCC=C(C)C)C(=O)O` [Fusidic acid], the half-maximal effective concentration (EC50) in test [1] (setting [10]) worked out at 0.038 nM.
Still for that read-out and setting: as for `O=c1c(-c2ccc(O)cc2)coc2cc(O)cc(O)c12` [Genistein], the figure is 1.06 nM.
As for `CNC(C)C1CCC(N)C(OC2C(N)CC(N)C(OC3OCC(C)(O)C(NC)C3O)C2O)O1` (stereo not drawn) [Gentamycin, Gentamicin], the EC50 in test [1] (setting [10]) amounted to 0.039 nM.
`CC(=O)O[C@H]1C[C@H](O[C@H]2[C@@H](O)C[C@H](O[C@H]3[C@@H](O)C[C@H](O[C@H]4CC[C@@]5(C)[C@H](CC[C@@H]6[C@@H]5C[C@@H](O)[C@]5(C)[C@@H](C7=CC(=O)OC7)CC[C@]65O)C4)O[C@@H]3C)O[C@@H]2C)O[C@H](C)[C@H]1O[C@@H]1O[C@H](CO)[C@@H](O)[C@H](O)[C@H]1O` [Lanatoside C]: in test [5], the “Clinical benefit … vs saline (placebo) group” value is on record as “no clinical benefit”.
Turning to `CCOC(=O)C1=C[C@@H](OC(CC)CC)[C@H](NC(C)=O)[C@@H](N)C1` [Oseltamivir], the “Apical viral titer log TCID50/ml (CI95)” value in test [7] (setting [12]) is 6.02 (4.69 – 7.35) log TCID50/ml; in test [7] (setting [13]) it was 8.61 (7.43 – 9.80) log TCID50/ml; in test [7] (72 h p.i., oseltamivir 0.1 µM, diltiazem 9 µM or both) it was 8.30 (7.73 – 8.87) log TCID50/ml; in test [7] (setting [14]) it was 7.80 (6.56 – 9.04) log TCID50/ml; in test [7] (96 h p.i., oseltamivir 1 µM, diltiazem 90 µM or both), 7.09 (5.79 – 8.40) log TCID50/ml. The “Effect on viral replication vs untreated control” value in test [7] (oseltamivir 0.1 μM, diltiazem 9 μM (CMAP) or both, from 5 h p.i., once daily 5 days) is “no significant advantage over the untreated control”. In test [7] (setting [15]), the “Reduction in apical viral titers at 48 h p.i. compared to the untreated control” value was over 3 log. In addition, the “Virus on the basolateral medium” value in test [7] (setting [15]) is recorded as “No virus was detected”. Besides, the “Delay of the peak of viral production” value in test [7] (oseltamivir 1 μM, diltiazem 90 μM (10-fold CMAP)) is 24 h. Besides, the “Reduction in apical peak viral titers compared to the untreated control” value in [7] (oseltamivir 1 μM, diltiazem 90 μM or both, 48 h p.i. untreated vs. 72 h p.i. treated) is on record as over 2 log. For the same compound, the “Δ TEER (CI95)” value is listed as 8.98 (-81.72 – 99.68) Ohm/cm^2 in [8] (setting [12]); -24.32 (-58.00 – 9.36) Ohm/cm^2 in test [8] (24 h p.i., oseltamivir 1 µM, diltiazem 90 µM or both); 20.09 (-39.75 – 79.94) Ohm/cm^2 in test [8] (setting [13]); 7.26 (-85.73 – 100.3) Ohm/cm^2 in [8] (48 h p.i., oseltamivir 1 µM, diltiazem 90 µM or both); -209.2 (-271.5 – -146.8) Ohm/cm^2 in [8] (setting [14]). Also, the “TEER during the time-course of infection” value in test [8] (oseltamivir 1 μM, diltiazem 90 μM or both) is on record as “stabilized TEER”. For the same compound, the “Viral titer, Dilution #2” value in test [3] turned out to be 4.30 log TCID50/ml. Also, the “Viral titer, Dilution #1” value in test [3] is listed as 5.63 log TCID50/ml. For the same compound, the “Mean relative Viral production” value in test [3] was 130.3 % of mock-treated. Moreover, the Survival entry in test [4] is given as “completely prevented mortality”. For the same compound, the “Mice rescued from death” value in test [4] (oseltamivir 10 mg/kg/day, diltiazem 90 mg/kg/day) came out at 40%. Moreover, in test [4] (oseltamivir 10, monensin 10, diltiazem 90 mg/kg/day), the Weight loss entry is given as “reduced weight loss”. Also, the “Clinical benefit … vs saline (placebo) group” value in [5] was “clinical improvement”. Further, the “Weight loss vs saline (placebo) group” value in test [5] is recorded as “clinical improvement”.
For the compound `CC(C)NCC(O)COc1cccc2[nH]ccc12` (stereo not drawn) [Pindolol], the EC50 in test [1] (setting [10]) stood at 0.79 nM.
Turning to `CNC(=C[N+](=O)[O-])NCCSCc1ccc(CN(C)C)o1` [Ranitidine], the 50% effective concentration (EC50) amounted to 0.68 nM in test [1] (setting [10]) and 1100 nM in test [9].
Compound `NC(=O)c1ncn([C@@H]2O[C@H](CO)[C@@H](O)[C@H]2O)n1` [Ribavirin] displayed an EC50 in test [1] (Influenza A virus, H1N1, A549, 48 h) of 0.86 nM.
Regarding `CC[C@H]1OC(=O)[C@H](C)[C@@H](O[C@H]2C[C@@](C)(OC)[C@@H](O)[C@H](C)O2)[C@H](C)[C@@H](O[C@@H]2O[C@H](C)C[C@H](N(C)C)[C@H]2O)[C@](C)(O)C[C@@H](C)/C(=N\OCOCCOC)[C@H](C)[C@@H](O)[C@]1(C)O` [Roxythromycin, Roxithromycin], the half-maximal effective concentration (EC50) in test [1] (setting [10]) turned out to be 0.14 nM.
On the same count and under the same terms, to `COc1cc(NS(=O)(=O)c2ccc(N)cc2)nc(OC)n1` [Sulfadimethoxine] belongs 0.69 nM.
Same read-out and setting: as for `COc1cc(NS(=O)(=O)c2ccc(N)cc2)ncn1` [Sulfamonomethoxine], the figure is 0.28 nM.
For `CC(C)(C)NC[C@H](O)COc1nsnc1N1CCOCC1` [Timolol], in test [5], the “Clinical benefit … vs saline (placebo) group” value is reported as “no clinical benefit”.
Regarding `c1ccc(CC2=NCCN2)cc1` [Tolazoline], in test [1] (setting [10]), the EC50 came out at 0.93 nM.
Regarding `C[C@H](CCC(=O)O)[C@H]1CC[C@H]2[C@@H]3[C@@H](O)C[C@@H]4C[C@H](O)CC[C@]4(C)[C@H]3CC[C@]12C` [Urseodeoxycholic acid, Ursodeoxycholic acid], the EC50 in test [1] (setting [10]) stood at 0.61 nM.
With `C[C@]12C=CC(=O)C=C1CC[C@@H]1[C@@H]2[C@@H](O)C[C@@]2(C)[C@H]1CC[C@]2(O)C(=O)CO` [prednisolone], the “Clinical benefit … vs saline (placebo) group” value in [5] is “no clinical benefit”.
